ChEMBL document CHEMBL5126592, “Design, synthesis and activity against drug-resistant bacteria evaluation of C-20, C-23 modified 5-O-mycaminosyltylonolide derivatives” (Eur J Med Chem, 2022)
Values after ≈ are worked out from the molar mass of the structure shown. Active and inactive are the calls of the source. The calls are words filed in the database; no cut-off is given here.

What was measured:
Staphylococcus aureus [1] = assay: Antibacterial activity against Staphylococcus aureus ATCC 29213 at pH 8.6 incubated for 16 to 20 hrs in absence of foetal bovine serum by broth microdilution method; type: functional; conditions: time 16-20 hrs
Escherichia coli [2] = assay: Antibacterial activity against Escherichia coli ATCC 25922 incubated for 16 to 20 hrs using 10^7 CFU/ml bacterial inoculum by broth microdilution method; type: functional; conditions: time 16-20 hrs
Escherichia coli [3] = assay: Antibacterial activity against Escherichia coli ATCC 25922 incubated for 16 to 20 hrs using 10^3 CFU/ml bacterial inoculum by broth microdilution method; type: functional; conditions: time 16-20 hrs
Escherichia coli [4] = assay: Antibacterial activity against Escherichia coli ATCC 25922 incubated for 16 to 20 hrs using 10^5 CFU/ml bacterial inoculum by broth microdilution method; type: functional; conditions: time 16-20 hrs
Staphylococcus aureus [5] = assay: Antibacterial activity against Staphylococcus aureus ATCC 29213 incubated for 16 to 20 hrs using 10^3 CFU/ml bacterial inoculum by broth microdilution method; type: functional; conditions: time 16-20 hrs
Klebsiella pneumoniae = assay: Antibacterial activity against Klebsiella pneumoniae ATCC 13883 incubated for 16 to 20 hrs by broth microdilution method; type: functional; conditions: time 16-20 hrs
Staphylococcus aureus [6] = assay: Antibacterial activity against Staphylococcus aureus ATCC 29213 at pH 8.6 incubated for 16 to 20 hrs in presence of 10% foetal bovine serum by broth microdilution method; type: functional; conditions: time 16-20 hrs
Staphylococcus aureus [7] = assay: Antibacterial activity against Staphylococcus aureus ATCC 29213 incubated for 16 to 20 hrs using 10^4 CFU/ml bacterial inoculum by broth microdilution method; type: functional; conditions: time 16-20 hrs
Staphylococcus aureus [8] = assay: Antibacterial activity against Staphylococcus aureus ATCC 29213 incubated for 16 to 20 hrs using 10^7 CFU/ml bacterial inoculum by broth microdilution method; type: functional; conditions: time 16-20 hrs
[9] = test system: Staphylococcus chromogenes; assay: Antibacterial activity against Staphylococcus chromogenes incubated for 16 to 20 hrs by broth microdilution method; type: functional; conditions: time 16-20 hrs
Staphylococcus aureus [10] = assay: Antibacterial activity against Staphylococcus aureus ATCC 29213 at pH 8.6 incubated for 16 to 20 hrs in presence of 50% foetal bovine serum by broth microdilution method; type: functional; conditions: time 16-20 hrs
Escherichia coli [11] = assay: Antibacterial activity against Escherichia coli ATCC 25922 incubated for 16 to 20 hrs in presence of 25% foetal bovine serum by broth microdilution method; type: functional; conditions: time 16-20 hrs
Escherichia coli [12] = assay: Antibacterial activity against Escherichia coli ATCC 25922 incubated for 16 to 20 hrs by broth microdilution method; type: functional; conditions: time 16-20 hrs
Escherichia coli [13] = assay: Antibacterial activity against Escherichia coli ATCC 25922 incubated for 16 to 20 hrs using 10^6 CFU/ml bacterial inoculum by broth microdilution method; type: functional; conditions: time 16-20 hrs
Cronobacter sakazakii = assay: Antibacterial activity against Cronobacter sakazakii ATCC 29544 incubated for 16 to 20 hrs by broth microdilution method; type: functional; conditions: time 16-20 hrs
[14] = test system: Streptococcus dysgalactiae; assay: Antibacterial activity against Streptococcus dysgalactiae incubated for 16 to 20 hrs by broth microdilution method; type: functional; conditions: time 16-20 hrs
Staphylococcus aureus [15] = assay: Antibacterial activity against Staphylococcus aureus ATCC 25923 incubated for 16 to 20 hrs by broth microdilution method; type: functional; conditions: time 16-20 hrs
Staphylococcus aureus [16] = assay: Antibacterial activity against Staphylococcus aureus ATCC 29213 at pH 8.6 incubated for 16 to 20 hrs in presence of 25% foetal bovine serum by broth microdilution method; type: functional; conditions: time 16-20 hrs
Escherichia coli [17] = assay: Antibacterial activity against Escherichia coli ATCC 25922 incubated for 16 to 20 hrs in presence of 50% foetal bovine serum by broth microdilution method; type: functional; conditions: time 16-20 hrs
Pseudomonas aeruginosa = assay: Antibacterial activity against Pseudomonas aeruginosa LTP-3 incubated for 16 to 20 hrs by broth microdilution method; type: functional; conditions: time 16-20 hrs
Staphylococcus aureus [18] = assay: Antibacterial activity against Staphylococcus aureus ATCC 29213 at pH 8.6 incubated for 16 to 20 hrs in presence of 5% foetal bovine serum by broth microdilution method; type: functional; conditions: time 16-20 hrs
Escherichia coli [19] = assay: Antibacterial activity against Escherichia coli ATCC 25922 incubated for 16 to 20 hrs using 10^4 CFU/ml bacterial inoculum by broth microdilution method; type: functional; conditions: time 16-20 hrs
Staphylococcus aureus [20] = assay: Antibacterial activity against Staphylococcus aureus ATCC 29213 incubated for 16 to 20 hrs using 10^5 CFU/ml bacterial inoculum by broth microdilution method; type: functional; conditions: time 16-20 hrs
Escherichia coli [21] = assay: Antibacterial activity against Escherichia coli ATCC 25922 incubated for 16 to 20 hrs in absence of foetal bovine serum by broth microdilution method; type: functional; conditions: time 16-20 hrs
Enterococcus faecium = assay: Antibacterial activity against Enterococcus faecium incubated for 16 to 20 hrs by broth microdilution method; type: functional; conditions: time 16-20 hrs
Escherichia coli [22] = assay: Antibacterial activity against Escherichia coli ATCC 25922 incubated for 16 to 20 hrs in presence of 5% foetal bovine serum by broth microdilution method; type: functional; conditions: time 16-20 hrs
Staphylococcus aureus [23] = assay: Antibacterial activity against Staphylococcus aureus incubated for 16 to 20 hrs by broth microdilution method; type: functional; conditions: time 16-20 hrs
Escherichia coli [24] = assay: Antibacterial activity against Escherichia coli incubated for 16 to 20 hrs by broth microdilution method; type: functional; conditions: time 16-20 hrs
Escherichia coli [25] = assay: Antibacterial activity against Escherichia coli ATCC 25922 incubated for 16 to 20 hrs in presence of 10% foetal bovine serum by broth microdilution method; type: functional; conditions: time 16-20 hrs
Staphylococcus aureus [26] = assay: Antibacterial activity against Staphylococcus aureus ATCC 29213 incubated for 16 to 20 hrs using 10^6 CFU/ml bacterial inoculum by broth microdilution method; type: functional; conditions: time 16-20 hrs
Escherichia coli [27] = assay: Bactericidal activity against Escherichia coli ATCC 25922 incubated for 20 to 24 hrs by CLSI based analysis; type: functional; conditions: time 20-24 hrs
Staphylococcus aureus [28] = assay: Antibacterial activity against Staphylococcus aureus ATCC 29213 incubated for 16 to 20 hrs by broth microdilution method; type: functional; conditions: time 16-20 hrs
Escherichia coli [29] = assay: Ratio of MBC to MIC for Escherichia coli ATCC 25922; type: functional
Staphylococcus aureus [30] = assay: Antibacterial activity against Staphylococcus aureus ATCC 25923 infected in kunming mouse assessed as reduction in viable pathogens at 32.5 mg/kg, iv measured after 1 hr; type: functional, organism-based
Staphylococcus aureus [31] = assay: Bactericidal activity against Staphylococcus aureus ATCC 29213 incubated for 20 to 24 hrs by CLSI based analysis; type: functional; conditions: time 20-24 hrs
Escherichia coli [32] = assay: Inhibition of protein synthesis in Escherichia coli ATCC 25922 assessed as reduction in protein content at […] measured upto 12 hrs by microporous enzyme labeling method relative to control; type: functional
Staphylococcus aureus [33] = assay: Ratio of MBC to MIC for Staphylococcus aureus ATCC 29213; type: functional

| Compound | MIC (Staphylococcus aureus [1]) | MIC (Escherichia coli [2]) | MIC (Escherichia coli [3]) | MIC (Escherichia coli [4]) | MIC (Staphylococcus aureus [5]) | MIC (Klebsiella pneumoniae) | MIC (Staphylococcus aureus [6]) | MIC (Staphylococcus aureus [7]) | MIC (Staphylococcus aureus [8]) | MIC [9] | MIC (Staphylococcus aureus [10]) | MIC (Escherichia coli [11]) | MIC (Escherichia coli [12]) | MIC (Escherichia coli [13]) | MIC (Cronobacter sakazakii) | MIC [14] | MIC (Staphylococcus aureus [15]) | MIC (Staphylococcus aureus [16]) | MIC (Escherichia coli [17]) | MIC (Pseudomonas aeruginosa) | further results |
| --- | --- | --- | --- | --- | --- | --- | --- | --- | --- | --- | --- | --- | --- | --- | --- | --- | --- | --- | --- | --- | --- |
| CC[C@H]1OC(=O)C[C@@H](O)[C@H](C)[C@@H](O[C@@H]2O[C@H](C)[C@@H](O[C@H]3C[C@@](C)(O)[C@@H](O)[C@H](C)O3)[C@H](N(C)C)[C@H]2O)[C@@H](CC=O)C[C@@H](C)C(=O)/C=C/C(C)=C/[C@@H]1CO[C@@H]1O[C@H](C)[C@@H](O)[C@@H](OC)[C@H]1OC [TYLOSIN] | 2 µg/mL (≈ 2.18 µM) | > 32 µg/mL | > 32 µg/mL | > 32 µg/mL | 0.5 µg/mL (≈ 0.546 µM) | > 32 µg/mL | > 32 µg/mL | 0.5 µg/mL (≈ 0.546 µM) | 1 µg/mL (≈ 1.09 µM) | 0.5 µg/mL (≈ 0.546 µM) | > 32 µg/mL | > 32 µg/mL | > 32 µg/mL | > 32 µg/mL | > 32 µg/mL | 1 µg/mL (≈ 1.09 µM) | 0.5 µg/mL (≈ 0.546 µM) | > 32 µg/mL | > 32 µg/mL | 32 µg/mL (≈ 34.9 µM) | MIC (Staphylococcus aureus [18]): > 32 µg/mL; MIC (Escherichia coli [19]): > 32 µg/mL; MIC (Staphylococcus aureus [20]): 0.5 µg/mL (≈ 0.546 µM); MIC (Escherichia coli [21]): > 32 µg/mL; MIC (Enterococcus faecium): 1 µg/mL (≈ 1.09 µM); MIC (Escherichia coli [22]): > 32 µg/mL; MIC (Staphylococcus aureus [23]): 0.25 µg/mL (≈ 0.273 µM); MIC (Escherichia coli [24]): > 32 µg/mL; MIC (Escherichia coli [25]): > 32 µg/mL; MIC (Staphylococcus aureus [26]): 1 µg/mL (≈ 1.09 µM) |
| CC[C@H]1OC(=O)C[C@@H](O)[C@H](C)[C@@H](O[C@@H]2O[C@H](C)[C@@H](O)[C@H](N(C)C)[C@H]2O)[C@@H](CCN2CCCCC2)C[C@@H](C)C(=O)/C=C/C(C)=C/[C@@H]1CN1CCCCC1 [TILDIPIROSIN] | 4 µg/mL (≈ 5.45 µM) | 2 µg/mL (≈ 2.72 µM) | 0.5 µg/mL (≈ 0.681 µM) | 1 µg/mL (≈ 1.36 µM) | 0.5 µg/mL (≈ 0.681 µM) | 8 µg/mL (≈ 10.9 µM) | 8 µg/mL | 1 µg/mL (≈ 1.36 µM) | 4 µg/mL (≈ 5.45 µM) | 16 µg/mL (≈ 21.8 µM) | 16 µg/mL | 4 µg/mL | 1 µg/mL (≈ 1.36 µM) | 2 µg/mL (≈ 2.72 µM) | 16 µg/mL (≈ 21.8 µM) | 32 µg/mL (≈ 43.6 µM) | 16 µg/mL (≈ 21.8 µM) | 16 µg/mL | 4 µg/mL | 4 µg/mL (≈ 5.45 µM) | MBC (Escherichia coli [27]): 4 µg/mL (≈ 5.45 µM); MIC (Staphylococcus aureus [28]): 16 µg/mL (≈ 21.8 µM); Ratio (Escherichia coli [29]): 4; Activity (Staphylococcus aureus [30]): Active; MIC (Staphylococcus aureus [18]): 4 µg/mL; MIC (Escherichia coli [19]): 1 µg/mL (≈ 1.36 µM); MIC (Staphylococcus aureus [20]): 2 µg/mL (≈ 2.72 µM); MBC (Staphylococcus aureus [31]): > 32 µg/mL; MIC (Escherichia coli [21]): 2 µg/mL (≈ 2.72 µM); MIC (Enterococcus faecium): 32 µg/mL (≈ 43.6 µM); MIC (Escherichia coli [22]): 2 µg/mL; MIC (Staphylococcus aureus [23]): 32 µg/mL (≈ 43.6 µM); MIC (Escherichia coli [24]): 16 µg/mL (≈ 21.8 µM); inhibition (Escherichia coli [32]): 26.5%; MIC (Escherichia coli [25]): 2 µg/mL; Ratio (Staphylococcus aureus [33]): >2; MIC (Staphylococcus aureus [26]): 4 µg/mL (≈ 5.45 µM) |
